From paper PMC6348444, “New Water-Soluble Copper(II) Complexes with Morpholine–Thiosemicarbazone Hybrids: Insights into the Anticancer and Antibacterial Mode of Action” (Journal of Medicinal Chemistry, 2018)
Where two headings read alike, the source gives them in different places. Marks after values point to notes of the source that are not given here. Blank lines part the entries; values can stand above or below the compound they belong to.

How the values were obtained:
HEK293 cells = experiment: MTT cytotoxicity assay, HEK293; type: cell-based, human; conditions: for SF (selectivity factor): IC50(HEK293)/IC50(A2780); for IC50: MTT assay, 72 h exposure, noncancerous cells
A2780 cells [1] = experiment: MTT cytotoxicity assay, A2780; type: cell-based, human
A2780cisR cells = experiment: MTT cytotoxicity assay, A2780cisR; type: cell-based, human; conditions: for RF (resistance factor): IC50(A2780cisR)/IC50(A2780); for IC50: MTT assay, 72 h exposure, cisplatin-resistant A2780cisR, read-out: IC50 A2780cis
A2780 cells [2] = experiment: Cellular accumulation of Cu by ICP-MS; type: cell-based, human; conditions: 24 h exposure
Source text: The ability of anticancer drugs to penetrate biological membranes, tissues, and barriers underlies their biological, pharmacokinetic, and metabolic properties. These properties can be predicted by calculating physicochemical characteristics of drug candidates using molecular descriptors.[30] […] The results are shown in Table S7 in the Supporting Information. On the basis of the calculated physicochemical parameters, we determined if novel compounds belonged to the drug-like chemical space, which is commonly defined by the well-known Lipinski rule, or to the known drug space (KDS), which includes all small compounds in medical use.[31] […] Following the calculations, we determined the lipophilicity of all compounds experimentally (log D7.4, Tables 1 and 2). It is known that cancer cells accumulate hydrophilic compounds to a smaller extent relative to hydrophobic compounds, thereby affecting their activity. […] As expected, proligands were more lipophilic than the corresponding Cu(II) species, which are positively charged at physiological pH (Figure 3b). […] The lipophilicity of 2–5 increased in the following order 4 < 2 < 3 < 5, and correlated well with their cytotoxicity in cancer cells, with the exception of 3. Subsequently, we determined the total cellular accumulation of Cu in A2780 cells by ICP–MS upon 24 h exposure to 1–6 in comparison with CuCl2 (Table 2). […] The accumulation increased in the order 6 < 1 < 3 < 4 < 2 < 5.
Cellular accumulation of 1–6 was determined in A2780 cells. Cells were seeded into Cellstar 6-well plates (Greiner Bio-one) at a density of 60 × 10^4 cells/well (2 mL per well). After the cells were allowed to resume exponential growth for 24 h, they were exposed to 1–6 at 1 μM for 24 h at 37 °C. The cells were washed twice with 1 mL of PBS and lysed with RIPA lysis buffer for 5–10 min at 4 °C. The cell lysates were scraped from the wells and transferred to separate 1.5 mL microtubes. The supernatant was then collected after centrifugation (13 000 rpm, 4 °C for 15 min) and total protein content of each sample was quantified via Bradford’s assay. Cell lysates were transferred to 2 mL glass vials and then digested with ultrapure 65% HNO3 at 100 °C for 24 h. The resulting solution was diluted to 1 mL (2–4% v/v HNO3) with ultrapure Milli-Q water. Cu content of each sample was quantified by ICP–MS. In was used as an internal standard. Cu and In were measured at m/z 64 and m/z 115, respectively. Metal standards for calibration curve (0, 0.5, 1, 2, 5, 10, 20, and 40 ppb) were freshly prepared before each measurement. All readings were made in triplicates in He mode. For temperature-dependent cellular accumulation experiments, A2780 cells were seeded into 35 n 10 mm tissue culture plates at a density of 60 0 10^4 cells/plate. After the cells were allowed to resume exponential growth for 24 h, they were exposed to 2 at 3 μM for 10, 30, 60, and 120 min at 37 and 4 °C. The subsequent analysis was performed as described above. For energy-dependent experiments, A2780 cells were seeded into 35 5 10 mm tissue culture plates at a density of 1 0 10^6 cells/plate. After the cells were allowed to resume exponential growth for 24 h, they were preincubated with oligomycin (5 μM) for 1 or 4 h or with cycloheximide (100 μM) for 4 h and further co-incubated with 3 μM of 2 at 37 °C. To induce total starvation, after the cells were allowed to resume exponential growth for 24 h, RPMI media was replaced with HBSS, and cells were preincubated in HBSS for 1 h and further incubated with 3 μM of 2 for 1 h at 37 °C. The subsequent analysis was performed as described above.

A2780 cells [3] = experiment: Annexin V/PI apoptosis assay; type: cell-based, human; conditions: A2780, concentration corresponding to Cu content in 2 at 2IC50
Source text: To elucidate if observed cytotoxicity of new compounds described in this study was a result of apoptosis induction, we conducted Annexin V/PI apoptosis assay. In brief, fluorochrome-labeled Annexin V reagent is used for detection of membrane phosphatidylserine (PS), which translocates to the cellular surface from the inner side of plasma membrane in the event of early apoptosis. Simultaneously, PI is used for detection of later stages of apoptosis or necrosis, which are characterized by loss of membrane integrity and accumulation of PI inside the cells. […] Results are illustrated in Figure 9. Upon incubation of A2780 cells with increasing concentrations of HL^2 and 2, the dose-dependent increase of apoptotic cells was observed.
A2780 cells were seeded into Cellstar 12-well plates (Greiner Bio-One) at a density of 20 × 10^4 cells/well (1 mL per well). The cells were allowed to resume exponential growth for 24 h and subsequently they were exposed to HL^2 and 2 at different concentrations for 24 h. After the supernatant solution was collected in 1.5 mL microtubes, the cells were washed with 100 μL of trypsin, which was combined with the supernatant. Subsequently, cells were trypsinized with 200 μL of trypsin for 5 min at 37 °C, 5% CO2, washed with 200 μL of PBS, and combined with the supernatant. The cells were centrifuged at 2.5 × 10^3 rpm for 5 min and the pellets were washed once with PBS and resuspended in 500 μL of Annexin V binding buffer and stained with Annexin V-FITC and PI reagents. The fluorescence was immediately analyzed by flow cytometry. The resulting dot blots were acquired from 10 000 events and quantified using Flowjo software (Flowjo LLC, Ashland, OR, USA).

mouse R2 RNR protein = biological target: T1, mouse R2 RNR protein (Mus musculus, UniProt P11157); parameters: method as in PMID 21955844; conditions: mouse R2, after 5 min, same experimental conditions; cited from earlier work
T1 construct: made in house; host or cells: Escherichia coli
T1 sequence (P11157 1-390): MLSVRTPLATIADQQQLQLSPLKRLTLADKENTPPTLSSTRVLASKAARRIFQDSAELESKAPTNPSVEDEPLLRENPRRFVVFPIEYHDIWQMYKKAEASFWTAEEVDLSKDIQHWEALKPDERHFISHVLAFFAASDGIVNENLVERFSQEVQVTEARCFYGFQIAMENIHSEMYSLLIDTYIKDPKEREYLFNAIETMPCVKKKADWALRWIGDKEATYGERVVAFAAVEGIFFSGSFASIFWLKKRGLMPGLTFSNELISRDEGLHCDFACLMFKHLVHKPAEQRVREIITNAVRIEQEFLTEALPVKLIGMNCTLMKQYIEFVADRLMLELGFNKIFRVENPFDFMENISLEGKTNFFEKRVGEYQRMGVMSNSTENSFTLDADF

[4] = system: Staphylococcus aureus CECT 86 (ATCC 12600); experiment: MIC microdilution, S. aureus; type: cell-based; conditions: planktonic cells
Procedure: (§1) Wild-type P. aeruginosa PAO1 strain CECT 4122 (ATCC 15692) and S. aureus CECT 86 (ATCC 12600) were obtained from the Spanish Type Culture Collection (CECT). All strains were routinely cultivated in TSB medium (Sharlab, Spain) at 37 °C. MIC assays were determined by the microdilution method using TSB broth following the method described by the Clinical and Laboratory standards Institute.[94] In brief, compounds were diluted in a 96-well microtiter plate (tissue culture-treated polystyrene; […]

[5] = n-octanol/water distribution coefficient, shake-flask; type: physicochemical; conditions: n-octanol/buffered aqueous solution, pH 7.40, UV-vis
Procedure: The titrations were carried out under a nitrogen atmosphere.

Solubility in water = type: physicochemical; conditions: sterile water stock solutions
Procedure: Human ovarian carcinoma cells A2780 and A2780cisR and human embryonic kidney HEK293 were obtained from ATCC. A2780 and A2780cisR cells were cultured in RPMI 1640 medium containing 10% FBS. HEK293 were cultured in DMEM medium containing 10% FBS. All cells were grown in tissue culture 25 cm^2 flasks (BD Biosciences, Singapore) at 37 °C in a humidified atmosphere of 95% air and 5% CO2. All drug stock solutions were prepared in sterile water. The amount of Cu was determined by ICP–OES.

[6] = system: Pseudomonas aeruginosa PAO1 CECT 4122 (ATCC 15692); experiment: MIC microdilution, P. aeruginosa; type: cell-based; conditions: planktonic cells
Procedure: as §1

[7] = Cyclic voltammetry, redox potentials; type: physicochemical; conditions: first reduction step
Procedure: To assess the redox properties of 1-6, detailed electrochemical and spectroscopic studies in various solvents were performed using cyclic voltammetry as well as EPR-spectroelectrochemistry. Additionally, the UV-vis spectra of 1-5 were measured (Figure S8). […] The second reduction step occurred at -1.8 V versus Fc^+/Fc (-1.16 V vs NHE) and was less reversible, indicating a ligand-based reduction. […] In aqueous solutions, the reduction potentials shifted to the less negative values, and reduction was less reversible as shown for 2 in Figure S10. […] Cyclic voltammetric experiments were performed as described previously.[46] The cyclic voltammograms were measured in the cathodic region in different solvents (DMSO, methanol, DMSO/H2O). The analytical purity grade LiClO4 (Sigma-Aldrich) and distilled and deionized water were used for preparation of 1 mM aqueous solutions of the investigated complexes 1-6. EPR spectra were recorded with the EMX plus. In situ UV-vis-NIR spectroelectrochemical measurements were performed on a spectrometer (Avantes, Model AvaSpec-2048x14-USB2 in the spectroelectrochemical cell kit ([…]3)) with the Pt-microstructured honeycomb working electrode, purchased from Pine Research Instrumentation. The cell was positioned in the CUV-UV Cuvette Holder (Ocean Optics) connected to the diode-array UV-vis-NIR spectrometer by optical fibers. UV-vis-NIR spectra were processed using the AvaSoft 7.7 software package. Halogen and deuterium lamps were used as light sources (Avantes, Model AvaLight-DH-S-BAL). The in situ EPR spectroelectrochemical experiments were carried out under an argon atmosphere in the EPR flat cell equipped with a large platinum mesh working electrode. The freshly prepared solutions were carefully purged with argon and the electrolytic cell was polarized in the galvanostatic mode directly in the cylindrical EPR cavity TM-110 (ER 4103 TM), and the EPR spectra were measured in situ.

[8] = lowest concentration completely inhibiting growth

cellular accumulation A2780 (A2780 cells [2]; 2.5 μM): 0.17 ± 0.05 ^f nmol Cu/mg protein
Structure (SMILES): [Cl][Cu][Cl] [CuCl2, reference compound]
SF (selectivity factor) (HEK293 cells): 2.3 | IC50 (HEK293 cells): 187 ± 37 µM | IC50 (A2780 cells [1]; 72 h exposure): 83 ± 12 µM | RF (resistance factor) (A2780cisR cells): 1.0 | IC50 (A2780cisR cells): 82 ± 3 µM | induction of apoptosis (A2780 cells [3]): no induction of apoptosis was detected

Structure (SMILES): NC(=S)N/N=C/c1ncccc1N [triapine, 3-amino-2-pyridinecarboxaldehyde TSC, reference compound]
IC50 (HEK293 cells; Homo sapiens, HEK293): 0.39 ± 0.05 µM | SF (selectivity factor) (HEK293 cells): 0.6 | IC50 (A2780 cells [1]; Homo sapiens, A2780, 72 h exposure): 0.67 ± 0.22 µM | IC50 (A2780cisR cells; Homo sapiens): 1.1 ± 0.1 µM | tyrosyl radical loss (mouse R2 RNR protein): 100%

S. aureus MIC50 ([4]; growth inhibited at 50%): 100 µg/mL | S. aureus MIC100 [4, 8]: >500 µg/mL | log D7.4 [5]: –0.81 ± 0.04 | solubility in water (Solubility in water): ≤ 2000 µM | cellular accumulation A2780 (A2780 cells [2]; 1 μM): 0.63 ± 0.09 nmol Cu/mg protein | E1/2 Red1 (DMSO) vs Fc+/Fc ([7]; DMSO, vs Fc+/Fc): –0.81 V | E1/2 Red1 (DMSO) vs NHE ([7]; DMSO, vs NHE (in brackets)): –0.17 V | E1/2 Red1 (MeOH) vs Fc+/Fc ([7]; MeOH, vs Fc+/Fc): –0.57 V | E1/2 Red1 (MeOH) vs NHE ([7]; MeOH, vs NHE (in brackets)): +0.07 V
Structure (SMILES): NC(=NN=Cc1ccc(CN2CCOCC2)cn1)[S][Cu][Cl] [complex 1, [Cu(L^1)Cl]]
SF (selectivity factor) (HEK293 cells): 7.3 | IC50 (HEK293 cells): 16 ± 2 µM | IC50 (A2780 cells [1]; 72 h exposure): 2.2 ± 0.1 µM | RF (resistance factor) (A2780cisR cells): 5.9 | IC50 (A2780cisR cells): 13 ± 4 µM | P. aeruginosa MIC50 ([6]; growth inhibited at 50%): NA (NA denotes no antibacterial activity detected (>500 μg/mL)) | P. aeruginosa MIC100 [6, 8]: NA (NA denotes no antibacterial activity detected (>500 μg/mL))
